Six compounds from patent EP0091796A1, “Process for removing 1-sulfonyl groups from benzimidazoles” (ELI LILLY AND COMPANY, priority 1982, dated 1983) can be followed below.

SMILES strings stand for the structures.

The nature of this data set: pKa determination in 66% DMF/H2O. The following applies: for pKa: 66% dmf/h2o; for pK: solvent not given.

As for `C/C=C(\c1ccccc1)c1ccc2nc(N)[nH]c2c1` [Example 3, trans-2-amino-5(6)-(ethylidenebenzyl)benzimidazole], the pKa (in general, the pH at which an ionisable group is half protonated) (single or first (lower) pKa) amounted to 7.05.
`CON=C(c1ccccc1)c1ccc2nc(N)[nH]c2c1` [Example 1, 2-amino-5(6)-methoximephenylbenzimidazole] displayed a pKa (single or first (lower) pKa) of 8.88.
`C=C(c1ccccc1)c1ccc2nc(N)[nH]c2c1` [Example 6, 2-amino-5(6)-(methylidenebenzyl)benzimidazole]: the pKa (single or first (lower) pKa) came out at 6.8.
Take `Nc1nc2cc(C(=O)c3ccccc3)ccc2[nH]1` [Example 7, 2-amino-5(6)-benzoylbenzimidazole]: the pK turned out to be 5.65 (first (lower) printed value) and 13.0 (second (higher) printed value).
`CC=C(c1ccccc1)c1ccc2nc(N)[nH]c2c1` [Example 2, 2-amino-5(6)-(ethylidenebenz^yl)benzimidazole] showed a pKa (single or first (lower) pKa) of 6.98.
Turning to `Nc1nc2ccc(C(=O)c3ccccc3)cc2[nH]1` [Example 8, 2-amino-5(6)-benzoylbenzimidazole], the pKa came to 13.2 (second (higher) printed pKa) and 5.7 (single or first (lower) pKa).
